The subject of one experiment is ABHD3. Nature of the experiment: pPAFAH inhibition and serine hydrolase selectivity, SAR follow-up, selectivity assay for pPAFAH inhibitor project, biochemical, gel-based, FP-Rh fluorescence, complex proteome, SAR compounds (AID 588774).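 On inhibition: 0% = DMSO-only band intensity and 100% = blank gel background.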 Particulars: gel-based competitive ABPP, at 10 µM, stronger effect = higher value.
Experiment in experiment [1]: as above
Particulars: gel-based competitive ABPP, at 10 µM.

In the next experiment the target is ABHD4 (UniProt Q8VD66). The experiment is described as above. Conditions: gel-based competitive ABPP, at 10 µM, stronger effect = higher value.
ABHD4, sequence (Q8VD66 whole entry, looked up): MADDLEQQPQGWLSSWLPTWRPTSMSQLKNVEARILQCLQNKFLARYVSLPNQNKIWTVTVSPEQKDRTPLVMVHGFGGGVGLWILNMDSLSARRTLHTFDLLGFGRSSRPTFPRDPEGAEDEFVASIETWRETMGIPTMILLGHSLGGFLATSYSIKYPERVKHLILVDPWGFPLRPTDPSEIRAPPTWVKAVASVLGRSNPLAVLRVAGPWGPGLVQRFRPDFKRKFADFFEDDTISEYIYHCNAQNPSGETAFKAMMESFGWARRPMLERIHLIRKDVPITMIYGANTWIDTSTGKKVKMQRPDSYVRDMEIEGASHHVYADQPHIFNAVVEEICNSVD
Experiment [2] concerns the target Platelet-activating factor acetylhydrolase (Mus musculus) (UniProt Q60963). The experiment is described as above. Conditions: gel-based competitive ABPP, pPAFAH, stronger effect = higher value.
A further experiment concerns FAAH. The description is as above. Particulars: gel-based competitive ABPP, stronger effect = higher value.
Another experiment relates to MW 30 kDa. Described as above. Conditions: gel-based competitive ABPP, stronger effect = higher value.
Another experiment relates to LYPLA1. Described as above. Particulars: gel-based competitive ABPP, stronger effect = higher value.
In a further experiment the test system is pPAFAH. The description is as above. Particulars: gel-based competitive ABPP, anti-targets inhibited, at 10 µM.
The test system of a further experiment is ABHD6. The description is as above. Conditions: gel-based competitive ABPP, stronger effect = higher value.
The test system of a further experiment is LYPLA2. Described as above. Conditions: gel-based competitive ABPP, at 10 µM, stronger effect = higher value.
For experiment [3], the target named is Monoglyceride lipase (Mus musculus) (UniProt O35678). The experiment is described as above. Particulars: gel-based competitive ABPP, MAGL, stronger effect = higher value.
Monoglyceride lipase (Mus musculus), sequence (O35678 whole entry, looked up): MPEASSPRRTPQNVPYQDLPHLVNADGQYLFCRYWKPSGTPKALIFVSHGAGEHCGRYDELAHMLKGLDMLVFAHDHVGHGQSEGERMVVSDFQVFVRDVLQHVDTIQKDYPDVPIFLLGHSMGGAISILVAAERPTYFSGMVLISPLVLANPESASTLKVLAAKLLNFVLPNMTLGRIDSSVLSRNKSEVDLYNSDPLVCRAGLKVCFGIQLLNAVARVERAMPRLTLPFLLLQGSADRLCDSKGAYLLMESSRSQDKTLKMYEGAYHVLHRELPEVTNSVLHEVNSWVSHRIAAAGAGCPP

Active and inactive are the calls of the source.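 How the source made its calls: active means target enzyme inhibited at least 50% at a set dose, and selective over every off-target enzyme by a set factor; inactive means weaker inhibition or too little selectivity.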

Platelet-activating factor acetylhydrolase (Mus musculus), sequence (Q60963 whole entry, looked up): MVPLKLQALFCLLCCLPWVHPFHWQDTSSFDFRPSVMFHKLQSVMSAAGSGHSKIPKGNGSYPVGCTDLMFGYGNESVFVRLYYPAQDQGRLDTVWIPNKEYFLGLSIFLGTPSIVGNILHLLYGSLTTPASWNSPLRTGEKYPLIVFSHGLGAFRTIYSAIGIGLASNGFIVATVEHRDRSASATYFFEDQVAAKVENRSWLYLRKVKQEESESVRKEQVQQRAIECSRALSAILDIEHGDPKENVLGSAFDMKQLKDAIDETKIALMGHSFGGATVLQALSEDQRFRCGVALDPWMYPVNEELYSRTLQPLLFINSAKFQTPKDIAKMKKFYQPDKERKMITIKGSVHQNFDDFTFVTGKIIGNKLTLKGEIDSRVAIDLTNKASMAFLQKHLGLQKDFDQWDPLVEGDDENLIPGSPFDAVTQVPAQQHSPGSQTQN

In the case of `O=C(Oc1noc2cc(Cl)ccc12)N1CCOCC1`, the inhibition (usually the share of the control response that was lost under treatment) is 0% (inactive) with ABHD3; 0% (inactive) on ABHD4; 100% in experiment [2] (at 10 µM); 96% in [2] (inhibition, at 0.1 µM); 97% in experiment [2] (inhibition, at 1 µM); 100% in the experiment with FAAH (at 10 µM). The inhibition in the experiment with FAAH (inhibition, at 0.1 µM) is 85%; with FAAH (inhibition, at 1 µM) it was 94%; in the experiment with MW 30 kDa (at 0.1 µM) it was 24%; in the experiment on MW 30 kDa (at 1 µM), 39%; with LYPLA1 (at 10 µM) it was 0% (inactive); in the experiment with ABHD6 (at 10 µM) it was 66% (inactive). Further, the inhibition in the experiment with ABHD6 (inhibition, at 0.1 µM) is 27%; in the experiment on ABHD6 (inhibition, at 1 µM) it was 46%; with LYPLA2, 0% (inactive); in experiment [3] (at 10 µM), 26% (inactive). Besides, the anti-target count in experiment [1] (ABHD3, anti-targets inhibited) stood at 3; in experiment [1] (ABHD4, anti-targets inhibited) it was 3; in experiment [1] (ABHD6, anti-targets inhibited), 3; in experiment [1] (FAAH, anti-targets inhibited), 3; in experiment [1] (LYPLA1, anti-targets inhibited) it was 3; in experiment [1] (LYPLA2, anti-targets inhibited), 3. Further, the anti-target count in [1] (MAGL, anti-targets inhibited) came out at 3; with pPAFAH, 3.

As to `Cc1cc(N2CCN(C(=O)Oc3ccc(-c4ccc(Br)cc4)cc3)CC2)c2ccccc2n1`, the inhibition with ABHD3 was 0% (inactive); on ABHD4 it was 0% (inactive); in experiment [2] (at 10 µM), 56% (inactive); in experiment [2] (inhibition, at 0.1 µM), 2%; in experiment [2] (inhibition, at 1 µM), 37%; in the experiment with FAAH (at 10 µM), 0% (inactive). Also, the inhibition (in the experiment with LYPLA1 (at 10 µM); in the experiment on ABHD6 (at 10 µM); in the experiment on LYPLA2; in experiment [3] (at 10 µM)) was 0% (inactive) each time. For the same compound, the anti-target count in experiment [1] (ABHD3, anti-targets inhibited) amounted to 0; in experiment [1] (ABHD4, anti-targets inhibited) it was 0; in experiment [1] (ABHD6, anti-targets inhibited), 0; in experiment [1] (FAAH, anti-targets inhibited), 0; in [1] (LYPLA1, anti-targets inhibited), 0; in experiment [1] (LYPLA2, anti-targets inhibited), 0. Also, the anti-target count in [1] (MAGL, anti-targets inhibited) was 0; in the experiment with pPAFAH, 0.

For the compound `Cc1cc(N2CCN(C(=O)Oc3noc4cc(Cl)ccc34)CC2)c2ccccc2n1`, the inhibition with ABHD3 was 0% (inactive); at ABHD4 it was 0% (inactive); in experiment [2] (at 10 µM), 100%; in experiment [2] (inhibition, at 0.1 µM) it was 89%; in experiment [2] (inhibition, at 1 µM) it was 91%; with FAAH (at 10 µM), 100%. In addition, the inhibition with FAAH (inhibition, at 0.1 µM) was 87%; with FAAH (inhibition, at 1 µM), 100%; with LYPLA1 (at 10 µM), 50% (inactive); in the experiment with LYPLA1 (inhibition, at 0.1 µM), 20%; in the experiment with LYPLA1 (inhibition, at 1 µM), 25%; with ABHD6 (at 10 µM), 53%. Moreover, the inhibition in the experiment on ABHD6 (inhibition, at 0.1 µM) was 53%; in the experiment with ABHD6 (inhibition, at 1 µM) it was 53%; in the experiment with LYPLA2, 0% (inactive); in [3] (at 10 µM) it was 86%; in [3] (inhibition, at 0.1 µM), 79%; in [3] (inhibition, at 1 µM), 83%. Further, the anti-target count in [1] (ABHD3, anti-targets inhibited) came out at 4; in experiment [1] (ABHD4, anti-targets inhibited), 4; in [1] (ABHD6, anti-targets inhibited), 4; in experiment [1] (FAAH, anti-targets inhibited), 4; in experiment [1] (LYPLA1, anti-targets inhibited), 4; in experiment [1] (LYPLA2, anti-targets inhibited), 4. Further, the anti-target count in [1] (MAGL, anti-targets inhibited) was determined as 4; with pPAFAH, 4.
